Assay [1] deals with T1, PTPN2 (Homo sapiens, UniProt P17706).
T1 construct: expressed in transfected cells; host or cells: 293T (293T.109 HiBiT-PTPN2 line; parental 293T WT from ATCC)
T1 sequence (P17706 1-415): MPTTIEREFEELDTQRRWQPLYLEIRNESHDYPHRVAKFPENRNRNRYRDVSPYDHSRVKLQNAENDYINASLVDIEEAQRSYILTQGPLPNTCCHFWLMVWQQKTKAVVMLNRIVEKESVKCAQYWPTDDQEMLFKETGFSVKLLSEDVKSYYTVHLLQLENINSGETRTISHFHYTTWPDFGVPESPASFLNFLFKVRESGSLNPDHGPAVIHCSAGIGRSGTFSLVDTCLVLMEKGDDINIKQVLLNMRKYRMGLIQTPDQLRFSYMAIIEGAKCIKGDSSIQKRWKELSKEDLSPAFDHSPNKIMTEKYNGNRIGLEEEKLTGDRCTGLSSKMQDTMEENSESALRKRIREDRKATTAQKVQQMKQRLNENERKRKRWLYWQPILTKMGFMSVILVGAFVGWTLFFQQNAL
The assay is described as follows: HiBiT-Degradation 293T.109 PTPN2 (Nano-Glo HiBiT Lytic Assay). It counts as cell-based. To be noted: 293T.109 (HiBiT-PTPN2) cells, 24.0 hours. The gist of the method: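 Luminescence from a lytic HiBiT read gave PTPN2 levels after 24 h compound exposure at 37° C. Compounds were tested at 11 half-log points from a 10 μM top concentration, in duplicate. The cells were 293T engineered with an N-terminal HiBiT–PTPN2 fusion, plated at 5000 per well, with untreated wells as negative control and no-reagent wells as positive control.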

The subject of assay [2] is PTPN2. The assay is described as follows: HiBiT-Degradation B16F10.4 PTPN2. It counts as cell-based. The settings on record: B16F10.4 cells, 24.0 hours.

Here are results for eight molecules from patent US20240383886A1, “Protein Tyrosine Phosphatase Degraders and Methods of Use Thereof” (CALICO LIFE SCIENCES LLC, priority 2019, published 2024).

Molecules are shown by their SMILES.

For orientation: DC50 means the concentration at which degradation of the target reaches its halfway point. Regarding `CN(c1ccc(C2CCN(CC(=O)Nc3ccc4c(F)c(N5CC(=O)NS5(=O)=O)c(O)cc4c3)CC2)cc1)C1CCC(=O)NC1=O` (stereo not shown) [Example 108, 2-[4-[4-[(2,6-dioxo-3-piperidyl)-methyl-amino]phenyl]-1-piperidyl]-N-[5-fluoro-7-hydroxy-6-(1,1,4-trioxo-1,2,5-thiadiazolidin-2-yl)-2-naphthyl]acetamide], the DC50 was 200 to 1000 nM at PTPN2 [1] and not below 1000 nM in the assay with PTPN2 [2].
On the same counts, the results for `Cn1c(=O)n(C2CCC(=O)NC2=O)c2ccc(N3CCC(C4CCN(C(=O)COc5ccc6cc(O)c(N7CC(=O)NS7(=O)=O)c(F)c6c5)CC4)CC3)cc21` (stereo not shown) [Example 109, 3-[5-[4-[1-[2-[[8-fluoro-6-hydroxy-7-(1,1,4-trioxo-1,2,5-thiadiazolidin-2-yl)-2-naphthyl]oxy]acetyl]-4-piperidyl]-1-piperidyl]-3-methyl-2-oxo-benzimidazol-1-yl]piperidine-2,6-dione] are 200 to 1000 nM and 50 to 200 nM.
On the same counts, the results for `Cn1c(=O)n(C2CCC(=O)NC2=O)c2ccc(N3CCN(CCn4cc(-c5ccc6cc(O)c(N7CC(=O)NS7(=O)=O)c(F)c6c5)cn4)CC3)cc21` (stereo not shown) [Example 110, 3-[5-[4-[2-[4-[8-fluoro-6-hydroxy-7-(1,1,4-trioxo-1,2,5-thiadiazolidin-2-yl)-2-naphthyl]pyrazol-1-yl]ethyl]piperazin-1-yl]-3-methyl-2-oxo-benzimidazol-1-yl]piperidine-2,6-dione] are 10 to 50 nM and 50 to 200 nM.
The corresponding values for `O=C(CCCCOc1ccc2cc(O)c(N3CC(=O)NS3(=O)=O)c(F)c2c1)NCCCc1ccc2c3c(cccc13)C(=O)N2C1CCC(=O)NC1=O` (stereo not shown) [Example 111, N-[3-[1-(2,6-dioxo-3-piperidyl)-2-oxo-benzo[cd]indol-6-yl]propyl]-5-[[8-fluoro-6-hydroxy-7-(1,1,4-trioxo-1,2,5-thiadiazolidin-2-yl)-2-naphthyl]oxy]pentanamide] are 10 to 50 nM and 50 to 200 nM.
As to `Cn1c(=O)n(C2CCC(=O)NC2=O)c2ccc(C3CCN(CC(=O)N4CC(Oc5ccc6cc(O)c(N7CC(=O)NS7(=O)=O)c(F)c6c5)C4)CC3)cc21` (stereo not shown) [Example 112, 3-[5-[1-[2-[3-[[8-fluoro-6-hydroxy-7-(1,1,4-trioxo-1,2,5-thiadiazolidin-2-yl)-2-naphthyl]oxy]azetidin-1-yl]-2-oxo-ethyl]-4-piperidyl]-3-methyl-2-oxo-benzimidazol-1-yl]piperidine-2,6-dione], the 50% degradation concentration (DC50) on PTPN2 [1] lay within 10 to 50 nM; in the assay on PTPN2 [2] it was 50 to 200 nM.
As to `O=C1CCC(Nc2ccc(C3CCN(CC(=O)Nc4ccc5c(F)c(N6CC(=O)NS6(=O)=O)c(O)cc5c4)CC3(F)F)cc2)C(=O)N1` (stereo not shown) [Example 113, 2-[4-[4-[(2,6-dioxo-3-piperidyl)amino]phenyl]-3,3-difluoro-1-piperidyl]-N-[5-fluoro-7-hydroxy-6-(1,1,4-trioxo-1,2,5-thiadiazolidin-2-yl)-2-naphthyl]acetamide], the DC50 on PTPN2 [1] and with PTPN2 [2] was 200 to 1000 nM throughout.
Take `Cn1nc(C2CCC(=O)NC2=O)c2ccc(C3CCN(CC(=O)Nc4ccc5c(F)c(N6CC(=O)NS6(=O)=O)c(O)cc5c4)CC3(F)F)cc21` (stereo not shown) [Example 114, N-(6-(1,1-dioxido-4-oxo-1,2,5-thiadiazolidin-2-yl)-5-fluoro-7-hydroxynaphthalen-2-yl)-2-(4-(3-(2,6-dioxopiperidin-3-yl)-1-methyl-1H-indazol-6-yl)-3,3-difluoropiperidin-1-yl)acetamide]: the 50% degradation concentration (DC50) on PTPN2 [1] and in the assay with PTPN2 [2] was 50 to 200 nM each time.
As to `Cn1c(=O)n(C2CCC(=O)NC2=O)c2ccc(C3CCN(CC(=O)N4CC(c5ccc6c(F)c(N7CC(=O)NS7(=O)=O)c(O)cc6c5)C4)CC3)cc21` (stereo not shown) [Example 115, 3-(5-(1-(2-(3-(6-(1,1-dioxido-4-oxo-1,2,5-thiadiazolidin-2-yl)-5-fluoro-7-hydroxynaphthalen-2-yl)azetidin-1-yl)-2-oxoethyl)piperidin-4-yl)-3-methyl-2-oxo-2,3-dihydro-1H-benzo[d]imidazol-1-yl)piperidine-2,6-dione], the half-maximal degradation concentration (DC50) at PTPN2 [1] and in the assay on PTPN2 [2] was 200 to 1000 nM each time.
